Results reported in ChEMBL document CHEMBL5120920, “A Mitochondria-Targeted Phenylbutyric Acid Prodrug Confers Drastically Improved Anticancer Activities” (J Med Chem, 2022).
pIC50: −log10 of the molar value. Active and inactive are the calls of the source. No cut-off for these calls is given here.

Legend:
A-375 [1] = assay: Antiproliferative activity against human A-375 cells assessed as inhibition of cell viability incubated for 72 hrs by MTT assay; type: functional, cell-based; conditions: A-375, 72 h
A549 = assay: Antiproliferative activity against human A549 cells assessed as inhibition of cell viability incubated for 72 hrs by MTT assay; type: functional, cell-based; conditions: A549, 72 h
MCF7 = assay: Antiproliferative activity against human MCF7 cells assessed as inhibition of cell viability incubated for 72 hrs by MTT assay; type: functional, cell-based; conditions: MCF7, 72 h
MDA-MB-231 = assay: Antiproliferative activity against human MDA-MB-231 cells assessed as inhibition of cell viability incubated for 72 hrs by MTT assay; type: functional, cell-based; conditions: MDA-MB-231, 72 h
[2] = Cytotoxicity against HEK293T cells assessed as cell growth inhibition measured after 72 hrs by MTT assay; type: toxicity, cell-based, HEK-293T; conditions: human
[3] = Cytotoxicity against human L02 cells assessed as cell growth inhibition measured after 72 hrs by MTT assay; type: toxicity, cell-based
[4] = Cytotoxicity against human HaCaT cells assessed as cell growth inhibition measured after 72 hrs by MTT assay; type: toxicity, cell-based
[5] = Cytotoxicity against HUVEC assessed as cell growth inhibition measured after 72 hrs by MTT assay; type: toxicity, cell-based; conditions: human
[6] = Toxicity in BALB/c mouse assessed as change in body weight at 20 mg/kg, iv measured once every two days for 7 days; type: organism-based; conditions: in vivo, 168 h, time 7 day
A-375 [7] = assay: Antitumor activity against human A-375 cells implanted in BALB/c mouse assessed as suppression of tumor growth at 20 mg/kg, ip measured once every two days for 14 days; type: functional, organism-based; conditions: time 14.0 day
A-375 [8] = assay: Antitumor activity against human A-375 cells implanted in BALB/c mouse assessed as reduction in tumor weight at 20 mg/kg, ip measured once every two days for 14 days; type: functional, organism-based; conditions: time 14.0 day
A-375 [9] = assay: Antitumor activity against human A-375 cells implanted in BALB/c mouse assessed as shrinkage of tumor tissue at 20 mg/kg, ip measured once every two days for 14 days; type: functional, organism-based; conditions: time 14.0 day
A-375 [10] = assay: Induction of cell cycle arrest in human A-375 cells assessed as accumulation at G1 phase at 10 uM incubated for 24 hrs by PI staining based flow cytometry analysis (reference value: 68.07 %); type: functional
A-375 [11] = assay: Induction of cell cycle arrest in human A-375 cells assessed as accumulation at S phase at 10 uM incubated for 24 hrs by PI staining based flow cytometry analysis (reference value: 24.01 %); type: functional
A-375 [12] = assay: Induction of cell cycle arrest in human A-375 cells assessed as accumulation at G2 phase at 10 uM incubated for 24 hrs by PI staining based flow cytometry analysis (reference value: 7.92 %); type: functional
[13] = Apparent permeability across apical to basolateral side in human Caco-2 cells at 2 uM measured after 2 hrs by LC-MS/MS analysis; type: ADME, cell-based
[14] = Apparent permeability across basolateral to apical side in human Caco-2 cells at 2 uM measured after 2 hrs by LC-MS/MS analysis; type: ADME, cell-based
[15] = Efflux ratio of apparent permeability from basolateral to apical side over apical to basolateral side in human Caco2 cells by LC-MS/MS analysis; type: ADME, cell-based; conditions: Caco-2
A-375 [16] = assay: Induction of cell cycle arrest in human A-375 cells assessed as accumulation at G1 phase at 10 mM incubated for 24 hrs by PI staining based flow cytometry analysis (reference value: 68.07 %); type: functional
A-375 [17] = assay: Induction of cell cycle arrest in human A-375 cells assessed as accumulation at S phase at 10 mM incubated for 24 hrs by PI staining based flow cytometry analysis (reference value: 24.01 %); type: functional
A-375 [18] = assay: Induction of cell cycle arrest in human A-375 cells assessed as accumulation at G2 phase at 10 mM incubated for 24 hrs by PI staining based flow cytometry analysis (reference value: 7.92 %); type: functional
A-375 [19] = assay: Inhibition of glycolysis in human A-375 cells assessed as reduction in extracellular acidification rate at 5 mM measured after 4 hrs; type: functional, cell-based
A-375 [20] = assay: Antitumor activity against human A-375 cells xenografted in nude mouse assessed as tumor inhibition ratio at 80 mg/kg, ip measured once every two days for 14 days; type: functional; conditions: A-375, 336 h, time 14 day, read-out: TGI
A-375 [21] = assay: Effect on mitochondrial bio-energestics in human A-375 cells assessed as increase in OCR/ECRA ratio at 5 mM measured after 4 hrs; type: functional, cell-based

pIC50 (A-375 [1]) | pIC50 (A549) | pIC50 (MCF7) | pIC50 (MDA-MB-231) | Structure (SMILES) | further results
< 4.70 | < 4.70 | < 4.70 | < 4.70 | O=C(O)CCC[P+](c1ccccc1)(c1ccccc1)c1ccccc1 | 
< 4.70 | < 4.70 | < 4.70 | < 4.70 | O=C(O)CCCCCCCCC[P+](c1ccccc1)(c1ccccc1)c1ccccc1 | 
< 2.70 |  |  |  | COC(=O)CCCc1ccccc1 | 
5.90 | 5.73 | 5.92 | 5.71 | CN(C)c1ccc([P+](CCCCCCCCCC(=O)O)(c2ccc(N(C)C)cc2)c2ccc(N(C)C)cc2)cc1 | 
< 2.70 |  |  |  | CCOC(=O)CCCc1ccccc1 | 
6.44 | 6.24 | 6.36 | 6.62 | O=C(CCCc1ccccc1)NCC(CNC(=O)CCCc1ccccc1)(CNC(=O)CCCc1ccccc1)NC(=O)CCCCCCCCCCC[P+](c1ccccc1)(c1ccccc1)c1ccccc1 | 
5.30 | 5.28 | 5.48 | 5.02 | O=C(CCCc1ccccc1)NCC(CNC(=O)CCCc1ccccc1)(CNC(=O)CCCc1ccccc1)NC(=O)CC[P+](c1ccccc1)(c1ccccc1)c1ccccc1 | 
< 4.70 | < 4.70 | < 4.70 | < 4.70 | O=C(O)CCCCCCC[P+](c1ccccc1)(c1ccccc1)c1ccccc1 | 
5.70 | 5.68 | 5.72 | 5.66 | O=C(CCCc1ccccc1)NCC(CNC(=O)CCCc1ccccc1)(CNC(=O)CCCc1ccccc1)NC(=O)CCCCCCCCC[P+](c1ccc(C(F)(F)F)cc1)(c1ccc(C(F)(F)F)cc1)c1ccc(C(F)(F)F)cc1 | IC50 at 72 h [2]: > 20 µM; IC50 at 72 h [3]: > 20 µM; IC50 at 72 h [4]: > 20 µM; IC50 at 72 h [5]: > 20 µM
6.38 | 6.09 | 6.27 | 6.51 | O=C(CCCc1ccccc1)NCC(CNC(=O)CCCc1ccccc1)(CNC(=O)CCCc1ccccc1)NC(=O)CCCCCCCCC[P+](c1ccccc1)(c1ccccc1)c1ccccc1 | 
5.76 | 6.00 | 6.01 | 5.59 | O=C(CC[P+](c1ccccc1)(c1ccccc1)c1ccccc1)NC(COC(=O)CCCc1ccccc1)(COC(=O)CCCc1ccccc1)COC(=O)CCCc1ccccc1 | 
5.33 | 5.97 | 6.04 | 5.57 | O=C(CCCCC[P+](c1ccccc1)(c1ccccc1)c1ccccc1)NC(COC(=O)CCCc1ccccc1)(COC(=O)CCCc1ccccc1)COC(=O)CCCc1ccccc1 | 
5.89 | 6.19 | 6.21 | 5.89 | O=C(CCC[P+](c1ccccc1)(c1ccccc1)c1ccccc1)NC(COC(=O)CCCc1ccccc1)(COC(=O)CCCc1ccccc1)COC(=O)CCCc1ccccc1 | 
 |  |  |  | CCCS(=O)(=O)Nc1ccc(F)c(C(=O)c2c[nH]c3ncc(-c4ccc(Cl)cc4)cc23)c1F [VEMURAFENIB] | Activity [6]: Non-Toxic; Activity (A-375 [7]): Active; Activity (A-375 [8]): Active; Activity (A-375 [9]): Active
< 4.70 | < 4.70 | < 4.70 | < 4.70 | Cc1ccc([P+](CCCCCCCCCC(=O)O)(c2ccc(C)cc2)c2ccc(C)cc2)cc1 | 
5.55 | 5.99 | 6.19 | 5.80 | O=C(CCCC[P+](c1ccccc1)(c1ccccc1)c1ccccc1)NC(COC(=O)CCCc1ccccc1)(COC(=O)CCCc1ccccc1)COC(=O)CCCc1ccccc1 | 
< 4.70 | < 4.70 | < 4.70 | < 4.70 | O=C(O)CCCCCCCCC[P+](c1ccc(C(F)(F)F)cc1)(c1ccc(C(F)(F)F)cc1)c1ccc(C(F)(F)F)cc1.[Br-] | Activity (A-375 [10]): 68.44%; Activity (A-375 [11]): 19.88%; Activity (A-375 [12]): 11.68%

pIC50 (A-375 [1]) | pIC50 (A549) | pIC50 (MCF7) | pIC50 (MDA-MB-231) | Structure (SMILES) | further results
< 4.70 | < 4.70 | < 4.70 | < 4.70 | O=C(O)CCCC[P+](c1ccccc1)(c1ccccc1)c1ccccc1 | 
< 4.70 | < 4.70 | < 4.70 | < 4.70 | O=C(O)CCCCC[P+](c1ccccc1)(c1ccccc1)c1ccccc1 | 
5.49 | 5.11 | 5.61 | 5.44 | O=C(CCCc1ccccc1)NCC(CNC(=O)CCCc1ccccc1)(CNC(=O)CCCc1ccccc1)NC(=O)CCCCC[P+](c1ccccc1)(c1ccccc1)c1ccccc1 | 
6.48 | 6.38 | 6.40 | 6.33 | COc1cccc2c1C(=O)c1c(O)c3c(c(O)c1C2=O)C[C@@](O)(C(=O)CO)C[C@@H]3O[C@H]1C[C@H](N)[C@H](O)[C@H](C)O1 [DOXORUBICIN] | 
< 4.70 | < 4.70 | < 4.70 | < 4.70 | O=C(O)CCCCCCCCCCC[P+](c1ccccc1)(c1ccccc1)c1ccccc1 | 
6.18 | 6.01 | 6.10 | 6.24 | COc1cccc([P+](CCCCCCCCCC(=O)NC(CNC(=O)CCCc2ccccc2)(CNC(=O)CCCc2ccccc2)CNC(=O)CCCc2ccccc2)(c2cccc(OC)c2)c2cccc(OC)c2)c1 | 
< 5.00 | 5.39 | 5.07 | 5.40 | N#Cc1ccc([P+](CCCCCCCCCC(=O)NC(CNC(=O)CCCc2ccccc2)(CNC(=O)CCCc2ccccc2)CNC(=O)CCCc2ccccc2)(c2ccc(C#N)cc2)c2ccc(C#N)cc2)cc1 | 
< 4.70 | < 4.70 | < 4.70 | < 4.70 | O=C(O)CC[P+](c1ccccc1)(c1ccccc1)c1ccccc1 | 
< 4.70 | < 4.70 | < 4.70 | < 4.70 | O=C(O)CCCCCCCCC[P+](c1ccc(F)cc1)(c1ccc(F)cc1)c1ccc(F)cc1 | 
6.21 | 6.14 | 6.30 | 6.36 | Cc1ccc([P+](CCCCCCCCCC(=O)NC(CNC(=O)CCCc2ccccc2)(CNC(=O)CCCc2ccccc2)CNC(=O)CCCc2ccccc2)(c2ccc(C)cc2)c2ccc(C)cc2)cc1 | 
2.05 | 2.01 | 1.97 | 1.93 | O=C(O)CCCc1ccccc1 | Papp A→B at 2 h, 2 µM [13]: < 0.48 ×10⁻⁶ cm/s; Papp B→A at 2 h, 2 µM [14]: 0.74 ×10⁻⁶ cm/s; efflux ratio [15]: > 1.54; Activity (A-375 [16]): 87.33%; Activity (A-375 [17]): 7.4%; Activity (A-375 [18]): 5.38%; inhibition (A-375 [19]): Active; inhibition in vivo at 80 mg/kg (A-375 [20]): 10%; Activity (A-375 [21]): Active
5.92 | 5.85 | 5.88 | 6.23 | O=C(CCCc1ccccc1)NCC(CNC(=O)CCCc1ccccc1)(CNC(=O)CCCc1ccccc1)NC(=O)CCCCCCC[P+](c1ccccc1)(c1ccccc1)c1ccccc1 | 
5.89 | 5.66 | 5.65 | 5.89 | O=C(CCCc1ccccc1)NCC(CNC(=O)CCCc1ccccc1)(CNC(=O)CCCc1ccccc1)NC(=O)CCCCCCCCC[P+](c1ccc(F)cc1)(c1ccc(F)cc1)c1ccc(F)cc1 | 
< 4.70 | < 4.70 | < 4.70 | < 4.70 | COc1cccc([P+](CCCCCCCCCC(=O)O)(c2cccc(OC)c2)c2cccc(OC)c2)c1 | 
< 4.70 | < 4.70 | < 4.70 | < 4.70 | N#Cc1ccc([P+](CCCCCCCCCC(=O)O)(c2ccc(C#N)cc2)c2ccc(C#N)cc2)cc1 | 
3.63 | 5.67 | 5.69 | 5.45 | O=C(CCCc1ccccc1)NCC(CNC(=O)CCCc1ccccc1)(CNC(=O)CCCc1ccccc1)NC(=O)CCCC[P+](c1ccccc1)(c1ccccc1)c1ccccc1 | 
5.34 | 3.20 | 5.57 | 5.03 | O=C(CCCc1ccccc1)NCC(CNC(=O)CCCc1ccccc1)(CNC(=O)CCCc1ccccc1)NC(=O)CCC[P+](c1ccccc1)(c1ccccc1)c1ccccc1 | 
